Where two headings read alike, the source gives them in different places.
What was measured:
[1] = Distribution coefficient in membrane/aqueous system, cancer cell membrane model; format: physicochemical; settings: for LogD: cancer cells membranes, 37 °C
Text: (§1) Single-lipid liposomal membrane models composed of DMPC, or lipid mixture liposomal membrane models mimetic of breast cancer cell membrane—DOPC (25%), CHOL (15%), EPC (31.8%), DOPS (17%), DOPE (8%), cardiolipin (2.5%) and SM (0.7%)—mimetic of cell membrane—[…], DOPE (20%), DOPS (20%), CHOL (10%), and SM (10%)—and, blood–brain barrier (BBB) membrane constituted by the BPL—phosphocholine (PC) (12.6%), phosphatidyl ethanolamine (PE) (33.1%), PI (4.1%), phosphatidyl serine (PS) (18.5%), and PA (0.8%) were prepared by the classical thin film hydration method. Briefly, lipids were co-dissolved in chloroform:methanol (8:2, v/v) and the solvents were evaporated under a stream of nitrogen in a rotary evaporator (Buchi R-200; Sigma-Aldrich Corp., Buchs, Switzerland). The resultant dried lipid film was hydrated with buffer at temperature of 40 ± 0.1 °C and lipid colloidal dispersions were formed by alternating vortex and thermostatic bath (40 ± 0.1 °C). […]
(§2) The distribution coefficient (LogD) of CPT between membrane and aqueous buffered solution (pH 5.8 for breast cancer cell membrane model and pH 7.4 for cell membrane model and BBB membrane model) was determined by fluorescence spectroscopy and derivative UV-Vis spectroscopy. […] The samples contained a fixed concentration of CPT (2 × 10^−5M) and increasing concentrations of lipid suspension (0 to 1 × 10^−3 M for absorbance or 3 × 10^−3 M for fluorescence). […] The fluorescence spectra were also measured on a Perkin-Elmer LS-50B spectrofluorimeter. The emission spectra were obtained in 380–480 nm range with λexcitation = 250 nm and the excitation spectra were recorded in 220–400 nm range with λemission = 430 nm. […] The second and third derivative spectra of the absorbance UV-Vis spectra were determined to improve the resolution of spectral bands and to eliminate the spectral interferences due to light scattered by the lipid suspensions. […]
(§3) Because CPT is a fluorescent compound with spectral variations due to its distribution between the lipid/aqueous phases (e.g., λ shifts), logD of CPT can also be calculated using fluorescence spectroscopy. […]

[2] = Distribution coefficient in membrane/aqueous system, normal cell membrane model; format: physicochemical; settings: for LogD: normal cells membranes (DOPC, DOPE, DOPS, CHOL, SM)
Text: as §1, §2, §3

[3] = Distribution coefficient in membrane/aqueous system, BBB membrane model; format: physicochemical; settings: BBB endothelial membrane, pH 7.4, derivative spectroscopy
Text: Single-lipid liposomal membrane models composed of DMPC, or lipid mixture liposomal membrane models mimetic of breast cancer cell membrane—DOPC (25%), CHOL (15%), EPC (31.8%), DOPS (17%), DOPE (8%), cardiolipin (2.5%) and SM (0.7%)—mimetic of cell membrane—DOPC (45%), DOPE (20%), DOPS (20%), CHOL (10%), and SM (10%)—and, blood–brain barrier (BBB) membrane constituted by the BPL—phosphocholine (PC) (12.6%), phosphatidyl ethanolamine (PE) (33.1%), PI (4.1%), phosphatidyl serine (PS) (18.5%), and PA (0.8%) were prepared by the classical thin film hydration method. […]
The distribution coefficient (LogD) of CPT between membrane and aqueous buffered solution (pH 5.8 for breast cancer cell membrane model and pH 7.4 for cell membrane model and BBB membrane model) was determined by fluorescence spectroscopy and derivative UV-Vis spectroscopy. […] The samples contained a fixed concentration of CPT (2 × 10^−5M) and increasing concentrations of lipid suspension (0 to 1 × 10^−3 M for absorbance or 3 × 10^−3 M for fluorescence). […] The fluorescence spectra were also measured on a Perkin-Elmer LS-50B spectrofluorimeter. The emission spectra were obtained in 380–480 nm range with λexcitation = 250 nm and the excitation spectra were recorded in 220–400 nm range with λemission = 430 nm. […]

HSA [4] = molecular target: HSA (Homo sapiens, UniProt P02768); experiment: Plasma protein binding by steady-state fluorescence quenching
Method: The fluorescence excitation and emission spectra of increasing CPT concentrations (0 to 3 × 10^−4 M) with a constant HSA concentration (2.0 × 10^−6 M) were acquired at 37.0 ± 0.1 °C (Perkin-Elmer LS-50B spectrofluorimeter, Waltham, USA), with excitation at 280 nm and emission at 342 nm, each with 5 nm slits. The following binding isotherm equation can be used to explain the quenching of HSA fluorescence caused by increasing CPT concentrations:(6) % Quenching=ymáx·n/1+Kdiss/[CPT] where ymax is the maximum fluorescence quenching measured, n is the number of binding sites of HSA to CPT, and Kdiss is the dissociation constant (i.e., the inverse of binding constant, Kbind). In addition, the following equation expresses the relationship between the Kdiss value and the Gibbs free energy ( Δ G) of complex binding:(7) ΔGbind=[…] where R is the ideal gas constant and T is the temperature in Kelvin (K).

[5] = Modelling biodistribution using in vitro parameters; parameters: species or system human; settings: for predicted off-target distribution / bioaccumulation: Equation (9)
Method: (§4) The logD value obtained can be used with in silico descriptors to predict many biodistribution parameters using mathematical methods. As a result, the value of logD was used to predict CPT bioaccumulation (as expressed by the bioaccumulation constant, Kbioaccumulation), which is associated to tissue blood flow (Q) and its volume (V):(9) Kbioaccumulation=Q/V·logD
(§5) To determine if the drug is stored in adipose tissue, the adipose store index (ASI) of CPT was calculated using the following equation [28]:(10) ASI=1.81·logD−logD+0.40
(§6) Furthermore, the obtained distribution coefficient in the BPL model system—logD(BBB)—can be compared to logBB, according to Waterbeem and Kansy. The logarithm of the ratio of drug concentrations in brain and blood is known as logBB, and it represents the drug’s relative affinity variations between plasma proteins and brain tissue:(11) logBB=0.388·logDBBB−0.00618·Vm+1.359 where Vm is the membrane model system’s molar volume, determined from the individual lipid volumes.
(§7) The steady-state volume distribution (VDSS) is one of the most useful PK criteria for describing a drug’s biodistribution. The effect of the PPB, permeability, partitioning, and active transport on the drug’s physiological distribution is translated by this predictor. Based on human clinical PK evidence of a wide set of drugs (670 drugs), the first physiological statistical model of VDSS for predicting the biodistribution of neutral and basic drugs was proposed:(12) VDSS=VP·(1+RE/L)+fu·VP(VE/VP−RE/L)+VR·fu/fut where VP and VE are the plasma and extracellular fluid volumes with corresponding value in human of […]; RE/I represents the ratio of extravascular and intravascular proteins, and is strictly referred to the distribution of albumin, assuming an approximate value of 1.4; VR is defined as the physical volume into which the drug distributes minus the extracellular space (0.380 L∙Kg^−1); fu and fut are, respectively, the unbound drug fraction in plasma and the unbound fraction in tissues.
(§8) The fu values can be obtained by the following equation [33]:(13) fu=1−PPB/100 where PPB can be obtained from the in vitro values of Kbind:(14) PPB=100/1+1/CP·Kbind where CP is the physiological plasma protein concentration (750 μM).
(§9) Lastly, fut can be obtained by the following equation [32]:(15) logfut=−0.0289−0.1739·logD−0.8324·fi(7.4)+1.0400·logfu where fi(7.4) is the fraction of ionized drug at pH 7.4 which has been calculated considering the pH hydrolysis and conversion of CPT from lactone neutral form to the anionic form carboxylate reported.

HSA [6] = experiment: as above; parameters: species or system human; settings: human, plasma proteins (calculated from in vitro Kbind to HSA); from Kbind to HSA, Equation (14); read-out: PPB (converted)
Method: as §4, §5, §6, §7, §8, §9

[7] = Literature in vivo steady-state volume of distribution; settings: human, converted from 190 ± 46 L·m^−2 with body surface 1.9 m^2 and body weight 70 kg, ref [71], read-out: in vivo VDSS
[8] = parameters: method as in PMID 30869853, PMID 21430952; settings: DMPC or DMPG, pH 7.4, fluorescence anisotropy; ref [16],[45],[46]; cited from earlier work
[9] = parameters: method as in doi:10.1021/jp035260s; settings: DOPC, pH 7.4, fluorescence anisotropy; ref [47]; cited from earlier work
[10] = parameters: method as in doi:10.1021/jp035260s; settings: DOPG, pH 7.4, fluorescence anisotropy; ref [47]; cited from earlier work
BSA = system: BSA; parameters: method as in Li et al. [17]; settings: ref Li et al. [17]; cited from earlier work
[11] = parameters: method as in PMID 22520977; settings: after 2 h in contact with human blood; ref [3]; cited from earlier work
[12] = parameters: method as in PMID 30654016; settings: at lower concentrations (5 µM); ref [38]; cited from earlier work
C26 colon carcinomas = system: C26 colon carcinomas; parameters: method as in PMID 18384903; settings: 2.5 mg∙Kg^−1 dose of CPT; ref [79]; cited from earlier work
[13] = fluorescence spectroscopy, ref [18],[47],[48] (table), [18],[49],[50]; cited from earlier work

Chain of HSA (Homo sapiens, UniProt P02768) (P02768 25-609): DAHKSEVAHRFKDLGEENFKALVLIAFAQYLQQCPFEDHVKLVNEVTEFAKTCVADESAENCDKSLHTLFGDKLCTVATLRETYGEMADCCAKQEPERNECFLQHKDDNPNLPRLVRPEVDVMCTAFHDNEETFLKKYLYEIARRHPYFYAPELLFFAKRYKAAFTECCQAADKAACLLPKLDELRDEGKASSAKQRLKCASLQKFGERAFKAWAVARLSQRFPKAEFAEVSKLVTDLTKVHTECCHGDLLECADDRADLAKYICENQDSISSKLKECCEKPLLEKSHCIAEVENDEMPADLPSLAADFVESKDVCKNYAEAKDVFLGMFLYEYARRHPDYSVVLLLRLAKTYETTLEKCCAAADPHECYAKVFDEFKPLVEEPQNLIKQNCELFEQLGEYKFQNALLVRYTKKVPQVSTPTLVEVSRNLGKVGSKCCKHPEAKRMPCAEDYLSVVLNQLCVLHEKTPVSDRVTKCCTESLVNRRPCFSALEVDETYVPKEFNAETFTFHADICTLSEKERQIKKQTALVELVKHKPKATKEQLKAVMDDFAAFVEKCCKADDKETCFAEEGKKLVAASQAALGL

Question: With `CC[C@@]1(O)C(=O)OCc2c1cc1n(c2=O)Cc2cc3ccccc3nc2-1` [CPT, Camptothecin] as the molecule, how does the LogD ([1]; pH 5.8, derivative UV-Vis spectroscopy) read?
Answer: 3.14 ± 0.13 ^ns

Question: And the LogD ([1]; pH 5.8, fluorescence spectroscopy)?
Answer: 3.01 ± 0.31 ^ns

Question: And the “logD in the cancer cell membrane model” value ([1]; mean of the two methods, pH 5.8)?
Answer: 3.08 ± 0.22

Question: What about the “average logD” value ([2]; average over normal and cancer cell membrane models and both methods) of the same molecule?
Answer: 2.89 ± 0.23

Question: And the LogD ([2]; pH 7.4, derivative UV-Vis spectroscopy)?
Answer: 2.78 ± 0.28 ^ns

Question: And the LogD ([2]; pH 7.4, fluorescence spectroscopy)?
Answer: 2.63 ± 0.15 ^ns

Question: What about the LogD [3] of the same molecule?
Answer: 3.64 ± 0.15

Question: What about the Kd (HSA [4]; HSA 2.0 × 10^−6 M, 37 °C, read-out: dissociation constant Kdiss) of the same molecule?
Answer: 65.7 µM

Question: And the “binding constant Kbind” value (HSA [4]; HSA, 37 °C)?
Answer: 1.52 ± 0.26 × 10^4 M^−1

Question: And the “number of binding sites n” value (HSA [4]; HSA, 37 °C)?
Answer: 1

Question: What about the “Gibbs free energy ΔGbind” value (HSA [4]; HSA, Equation (7)) of the same molecule?
Answer: -5.93 ± 0.10 kcal/mol

Question: What about the “adipose storage index (ASI)” value ([5]; Equation (10), from logD) of the same molecule?
Answer: 2.53 ± 0.12

Question: What about the “LogBB (brain accumulation index)” value ([5]; Equation (11), from logD in BBB endothelial membrane) of the same molecule?
Answer: 2.76 ± 0.06

Question: What about the “predicted off-target distribution / bioaccumulation” value ([5]; adrenal glands, from logD in normal cell membrane model) of the same molecule?
Answer: 61.44%

Question: And the “free drug available for distribution to the tissues” value ([5]; from PPB)?
Answer: 8.05%

Question: What about the “predicted off-target distribution / bioaccumulation” value ([5]; heart) of the same molecule?
Answer: 3.07%

Question: What about the fraction unbound ([5]; human, plasma (calculated from PPB), Equation (13), read-out: unbound fraction in plasma fu) of the same molecule?
Answer: 0.081

Question: And the fraction unbound ([5]; human, tissues (predicted), Equation (15), read-out: unbound fraction in tissues fut)?
Answer: 0.0054

Question: What about the Vd ([5]; human, Equation (12), from in vitro logD and PPB, read-out: VDSS (steady-state volume of distribution)) of the same molecule?
Answer: 5.75 ± 0.932 L/kg

Question: And the “predicted off-target distribution / bioaccumulation” value ([5]; kidneys)?
Answer: 3.07%

Question: And the “predicted off-target distribution / bioaccumulation” value ([5]; thyroid)?
Answer: 30.72%

Question: What about the fraction unbound (HSA [6]) of the same molecule?
Answer: 0.0805

Question: And the Vd [7]?
Answer: 5.16 ± 1.25 L/kg

Question: And the LogD [8]?
Answer: 2.00 ± 0.16

Question: And the LogD [9]?
Answer: 1.55 ± 0.05

Question: And the LogD [10]?
Answer: 1.97 ± 0.05

Question: And the “binding constant Kbind with BSA” value (BSA)?
Answer: 37200 M⁻¹

Question: And the “CPT lactone form remaining” value [11]?
Answer: 5%

Question: And the Papp [12]?
Answer: 30 ×10⁻⁶ cm/s

Question: And the “AUC (blood plasma)” value (C26 colon carcinomas)?
Answer: 1100 ng·h/mL

Question: What about the “LogD / logP in octanol:water” value [13] of the same molecule?
Answer: 1.73 ± 0.08

Source: paper PMC8231504, “A Biophysical Insight of Camptothecin Biodistribution: Towards a Molecular Understanding of Its Pharmacokinetic Issues” (Pharmaceutics, 2021)
